{"source": "patent US12187709B2", "about": "(Genentech, Inc., priority 2021, dated 2025)", "key": {"[1]": {"target": "Human Cbl-b (residues 40-426) (Homo sapiens (Human), UniProt Q13191)", "sequence (Q13191 40-426)": "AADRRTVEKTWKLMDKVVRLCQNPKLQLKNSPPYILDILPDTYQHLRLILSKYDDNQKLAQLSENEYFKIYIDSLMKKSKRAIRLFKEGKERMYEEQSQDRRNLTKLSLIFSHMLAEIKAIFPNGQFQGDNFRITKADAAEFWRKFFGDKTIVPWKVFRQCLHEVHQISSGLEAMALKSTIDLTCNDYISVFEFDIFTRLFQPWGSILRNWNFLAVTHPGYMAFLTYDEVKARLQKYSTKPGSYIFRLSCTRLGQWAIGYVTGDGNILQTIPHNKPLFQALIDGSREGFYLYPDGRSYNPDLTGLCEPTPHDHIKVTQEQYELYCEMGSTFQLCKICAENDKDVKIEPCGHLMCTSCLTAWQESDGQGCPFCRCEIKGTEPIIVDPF", "test": "Cbl-b SPR assay", "assay_type": "binding", "settings": "for Fold of selectivity: C-cbl SPR Kd vs Cbl-b SPR Kd; for Kd: SPR, 20° C.", "method_in_brief": "(§1)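 SPR, multi-cycle, 6-pt 2-fold series, blanks flanking for double referencing; capture 1300-1500 RU; contact 60 s at 40 μl/min; dissoc. 120-1200 s (~4-5 half-lives). 1:1 fit. Chaser variant: single cycle, 5 conc., top 500 nM, 120 s contact, 450 s dissociation.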"}, "Cbl-b": {"target": "Cbl-b (Homo sapiens (Human), UniProt Q13191)", "sequence (Q13191 40-426)": "as above", "test": "Cbl-b LCK Ub TR-FRET assay (Cbl-b Lck HTRF)", "assay_type": "biochemical", "settings": "for IC50: Cbl-b LCK Ub TR-FRET, Example 121; for (fold-selectivity) Cbl-b and C-Cbl Selectivity: ratio C-cbl Lck HTRF IC50 / Cbl-b Lck HTRF IC50", "method_in_brief": "(§2)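 After the ubiquitination reaction, detection mixture was added and plates incubated 20 min at room temperature before reading. IC50 values were calculated with wells lacking LCK as the low control and DMSO as the high control.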"}, "c-Cbl (residues 47-435)": {"target": "c-Cbl (residues 47-435) (Homo sapiens (Human), UniProt P22681)", "sequence (P22681 47-435)": "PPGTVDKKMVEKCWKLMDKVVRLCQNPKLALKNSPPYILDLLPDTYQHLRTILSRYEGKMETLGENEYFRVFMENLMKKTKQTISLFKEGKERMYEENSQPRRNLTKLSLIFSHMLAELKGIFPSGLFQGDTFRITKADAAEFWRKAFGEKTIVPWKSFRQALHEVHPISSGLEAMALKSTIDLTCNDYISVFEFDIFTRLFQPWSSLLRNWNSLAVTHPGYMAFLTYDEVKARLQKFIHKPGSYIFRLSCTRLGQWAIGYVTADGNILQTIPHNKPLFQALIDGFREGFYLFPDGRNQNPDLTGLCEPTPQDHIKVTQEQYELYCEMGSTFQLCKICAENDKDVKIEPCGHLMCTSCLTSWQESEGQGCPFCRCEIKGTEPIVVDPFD", "test": "c-Cbl SPR assay", "assay_type": "binding", "settings": "20° C.", "method_in_brief": "as §1"}, "c-Cbl": {"target": "c-Cbl (Homo sapiens (Human), UniProt P22681)", "sequence (P22681 47-435)": "as above", "test": "C-Cbl LCK Ub TR-FRET assay (C-cbl Lck HTRF)", "assay_type": "biochemical", "method_in_brief": "as §2"}}}
{"smiles": "CO[C@H]1C[C@](c2cccc(N3Cc4c(cc(CNC[C@@H]5[C@@H](C)C5(F)F)cc4C(F)(F)F)C3=O)c2)(c2nncn2C)C1", "note": "[Compound 503, 6-(((((1S,3R)-2,2-difluoro-3-methylcyclopropyl)methyl)amino)methyl)-2-(3-((1r,3S)-3-methoxy-1-(4-methyl-4H-1,2,4-triazol-3-yl)cyclobutyl)phenyl)-4-(trifluoromethyl)isoindolin-1-one]", "values": [{"measurement": "Fold of selectivity", "setting": "[1]", "result": 22, "unit": "×"}, {"measurement": "Kd", "setting": "[1]", "result": 2, "unit": "nM"}, {"measurement": "IC50", "setting": "Cbl-b", "result": 8.5, "unit": "nM"}, {"measurement": "(fold-selectivity) Cbl-b and C-Cbl Selectivity", "setting": "Cbl-b", "result": 3.0, "unit": "x"}, {"measurement": "Kd", "setting": "c-Cbl (residues 47-435)", "result": 44, "unit": "nM"}, {"measurement": "IC50", "setting": "c-Cbl", "result": 26, "unit": "nM"}]}
{"smiles": "CO[C@H]1C[C@](c2cccc(N3Cc4c(cc(CNC5CC6(C5)CC6F)cc4C(F)(F)F)C3=O)c2)(c2nncn2C)C1", "note": "(stereo partly drawn) [Compound 504, 6-(((1-fluorospiro[2.3]hexan-5-yl)amino)methyl)-2-(3-((1r,3r)-3-methoxy-1-(4-methyl-4H-1,2,4-triazol-3-yl)cyclobutyl)phenyl)-4-(trifluoromethyl)isoindolin-1-one]", "values": [{"measurement": "Fold of selectivity", "setting": "[1]", "result": 16, "unit": "×"}, {"measurement": "Kd", "setting": "[1]", "result": 5.7, "unit": "nM"}, {"measurement": "IC50", "setting": "Cbl-b", "result": 13, "unit": "nM"}, {"measurement": "(fold-selectivity) Cbl-b and C-Cbl Selectivity", "setting": "Cbl-b", "result": 5.1, "unit": "x"}, {"measurement": "Kd", "setting": "c-Cbl (residues 47-435)", "result": 90, "unit": "nM"}, {"measurement": "IC50", "setting": "c-Cbl", "result": 68, "unit": "nM"}]}
{"smiles": "CO[C@H]1C[C@](c2cccc(N3Cc4c(cc(CNC5CC(C#N)C5)cc4C(F)(F)F)C3=O)c2)(c2nncn2C)C1", "note": "(stereo partly drawn) [Compound 505, 3-(((2-(3-((1r,3r)-3-methoxy-1-(4-methyl-4H-1,2,4-triazol-3-yl)cyclobutyl)phenyl)-3-oxo-7-(trifluoromethyl)isoindolin-5-yl)methyl)amino)cyclobutanecarbonitrile]", "values": [{"measurement": "Fold of selectivity", "setting": "[1]", "result": 12, "unit": "×"}, {"measurement": "Kd", "setting": "[1]", "result": 4.7, "unit": "nM"}, {"measurement": "IC50", "setting": "Cbl-b", "result": 7.3, "unit": "nM"}, {"measurement": "(fold-selectivity) Cbl-b and C-Cbl Selectivity", "setting": "Cbl-b", "result": 4.1, "unit": "x"}, {"measurement": "Kd", "setting": "c-Cbl (residues 47-435)", "result": 64, "unit": "nM"}, {"measurement": "IC50", "setting": "c-Cbl", "result": 30, "unit": "nM"}]}
{"smiles": "CO[C@H]1C[C@](c2cccc(N3Cc4c(cc(CNCC5(CF)CCC5)cc4C(F)(F)F)C3=O)c2)(c2nncn2C)C1", "note": "[Compound 507, 6-((((1-(fluoromethyl)cyclobutyl)methyl)amino)meth-yl)-2-(3-((1r,3r)-3-methoxy-1-(4-methyl-4H-1,2,4-triazol-3-yl)cyclobutyl)phenyl)-4-(trifluoromethyl)isoindolin-1-one]", "values": [{"measurement": "Fold of selectivity", "setting": "[1]", "result": 15, "unit": "×"}, {"measurement": "Kd", "setting": "[1]", "result": 3.5, "unit": "nM"}, {"measurement": "IC50", "setting": "Cbl-b", "result": 9.3, "unit": "nM"}, {"measurement": "(fold-selectivity) Cbl-b and C-Cbl Selectivity", "setting": "Cbl-b", "result": 4.5, "unit": "x"}, {"measurement": "Kd", "setting": "c-Cbl (residues 47-435)", "result": 52, "unit": "nM"}, {"measurement": "IC50", "setting": "c-Cbl", "result": 42, "unit": "nM"}]}
{"smiles": "CO[C@H]1C[C@](c2cccc(N3Cc4c(cc(CN[C@@]56CCC[C@@H]5C6)cc4C(F)(F)F)C3=O)c2)(c2nncn2C)C1", "note": "[Compound 508, 6-(((1R,5R)-bicyclo[3.1.0]hexan-1-ylamino)methyl)-2-(3-((1r,3R)-3-methoxy-1-(4-methyl-4H-1,2,4-triazol-3-yl)cyclobutyl)phenyl)-4-(trifluoromethyl)isoindolin-1-one]", "values": [{"measurement": "Fold of selectivity", "setting": "[1]", "result": 14, "unit": "×"}, {"measurement": "Kd", "setting": "[1]", "result": 1.7, "unit": "nM"}, {"measurement": "IC50", "setting": "Cbl-b", "result": 6.2, "unit": "nM"}, {"measurement": "(fold-selectivity) Cbl-b and C-Cbl Selectivity", "setting": "Cbl-b", "result": 3.8, "unit": "x"}, {"measurement": "Kd", "setting": "c-Cbl (residues 47-435)", "result": 24, "unit": "nM"}, {"measurement": "IC50", "setting": "c-Cbl", "result": 24, "unit": "nM"}]}
{"smiles": "CO[C@H]1C[C@](c2cccc(N3Cc4c(cc(CNCC5(CO)CC6CC6C5)cc4C(F)(F)F)C3=O)c2)(c2nncn2C)C1", "note": "(stereo partly drawn) [Compound 509, 6-((((3-(hydroxymethyl)bicyclo[3.1.0]hexan-3-yl)methyl)amino)methyl)-2-(3-((1r,3r)-3-methoxy-1-(4-methyl-4H-1,2,4-triazol-3-yl)cyclobutyl)phenyl)-4-(trifluoromethyl)isoindolin-1-one]", "values": [{"measurement": "Fold of selectivity", "setting": "[1]", "result": 13, "unit": "×"}, {"measurement": "Kd", "setting": "[1]", "result": 6, "unit": "nM"}, {"measurement": "IC50", "setting": "Cbl-b", "result": 16, "unit": "nM"}, {"measurement": "(fold-selectivity) Cbl-b and C-Cbl Selectivity", "setting": "Cbl-b", "result": 4.7, "unit": "x"}, {"measurement": "Kd", "setting": "c-Cbl (residues 47-435)", "result": 75, "unit": "nM"}, {"measurement": "IC50", "setting": "c-Cbl", "result": 75, "unit": "nM"}]}
{"smiles": "CO[C@H]1C[C@](c2cccc(N3Cc4c(cc(CNCC5CC56CC6(F)F)cc4C(F)(F)F)C3=O)c2)(c2nncn2C)C1", "note": "(stereo partly drawn) [Compound 510]", "values": [{"measurement": "Fold of selectivity", "setting": "[1]", "result": 18, "unit": "×"}, {"measurement": "Kd", "setting": "[1]", "result": 3.4, "unit": "nM"}, {"measurement": "IC50", "setting": "Cbl-b", "result": 12, "unit": "nM"}, {"measurement": "(fold-selectivity) Cbl-b and C-Cbl Selectivity", "setting": "Cbl-b", "result": 4.2, "unit": "x"}, {"measurement": "Kd", "setting": "c-Cbl (residues 47-435)", "result": 60, "unit": "nM"}, {"measurement": "IC50", "setting": "c-Cbl", "result": 51, "unit": "nM"}]}
{"smiles": "CCCNCc1cc2c(c(C(F)(F)F)c1)CN(c1cccc([C@]3(c4nncn4C)C[C@H](OC)C3)c1)C2=O", "note": "[Compound 511, 2-(3-((1r,3r)-3-methoxy-1-(4-methyl-4H-1,2,4-triazol-3-yl)cyclobutyl)phenyl)-6-((propylamino)methyl)-4-(trifluoromethyl)isoindolin-1-one]", "values": [{"measurement": "Fold of selectivity", "setting": "[1]", "result": 13, "unit": "×"}, {"measurement": "Kd", "setting": "[1]", "result": 5, "unit": "nM"}, {"measurement": "IC50", "setting": "Cbl-b", "result": 12, "unit": "nM"}, {"measurement": "(fold-selectivity) Cbl-b and C-Cbl Selectivity", "setting": "Cbl-b", "result": 5.0, "unit": "x"}, {"measurement": "Kd", "setting": "c-Cbl (residues 47-435)", "result": 65, "unit": "nM"}, {"measurement": "IC50", "setting": "c-Cbl", "result": 61, "unit": "nM"}]}
